Entries after “also recorded” stand apart in the source; their conditions may differ.
What was measured:
TAK1 = target: T1, TAK1 (Homo sapiens, UniProt O43318); test: TAK1 LanthaScreen Eu Kinase Binding Assay (Invitrogen; Table 1 calls it TAK1 enzymatic assay)
T1 construct: purchased Invitrogen (Thermo Fisher Scientific)
T1 sequence (O43318 with tags, fused parts or gaps limits assumed): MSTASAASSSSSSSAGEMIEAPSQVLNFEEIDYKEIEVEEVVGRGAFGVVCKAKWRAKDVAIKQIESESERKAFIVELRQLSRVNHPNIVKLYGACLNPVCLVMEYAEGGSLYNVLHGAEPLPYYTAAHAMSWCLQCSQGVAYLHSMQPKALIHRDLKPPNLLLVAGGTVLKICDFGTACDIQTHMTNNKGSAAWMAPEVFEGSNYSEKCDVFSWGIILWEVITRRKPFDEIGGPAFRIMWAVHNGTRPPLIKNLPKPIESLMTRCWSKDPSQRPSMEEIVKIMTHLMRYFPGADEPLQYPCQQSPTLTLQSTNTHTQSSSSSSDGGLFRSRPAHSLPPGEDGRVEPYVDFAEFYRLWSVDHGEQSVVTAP
Description: (§1) Kinase assays were performed by Invitrogen (now Thermo Fisher Scientific, Waltham, MA) or Reaction Biology Corp. (Malvern, PA). Inhibitory activity of compounds for TAK1 was evaluated using LanthaScreen® Eu Kinase Binding Assay (Invitrogen, Waltham, MA). The kinase profile of compound 13h was determined by the kinase HotSpot Profiling service of Reaction Biology Corporation. All assays were performed at Km for ATP.
Table 1. TAK1 enzymatic assay with imidazopyridine derivatives. ^a In-vitro enzymatic assay data obtained from Invitrogen^TM.

MEK1/MAP2K1 = target: T2, MEK1/MAP2K1 (Homo sapiens, UniProt Q02750); test: Kinase HotSpot profiling (Reaction Biology Corp.); assay type: biochemical; details: ATP at Km
T2 construct: purchased Reaction Biology Corp
T2 sequence (Q02750 whole entry): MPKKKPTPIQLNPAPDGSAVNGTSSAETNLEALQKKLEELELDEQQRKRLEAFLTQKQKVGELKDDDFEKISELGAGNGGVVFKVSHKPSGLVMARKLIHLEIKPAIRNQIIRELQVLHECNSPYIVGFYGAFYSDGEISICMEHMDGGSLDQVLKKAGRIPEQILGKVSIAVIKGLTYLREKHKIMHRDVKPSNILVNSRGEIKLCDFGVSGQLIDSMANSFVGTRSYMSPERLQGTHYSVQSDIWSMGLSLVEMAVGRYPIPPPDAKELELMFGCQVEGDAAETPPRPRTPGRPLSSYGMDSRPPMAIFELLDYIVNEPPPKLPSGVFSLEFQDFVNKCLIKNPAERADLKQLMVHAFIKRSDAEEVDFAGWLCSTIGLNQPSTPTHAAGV
Description: as §1

MEKK1 = target: T3, MEKK1 (Homo sapiens, UniProt Q13233); test: Kinase HotSpot profiling (Reaction Biology Corp.); assay type: biochemical; details: ATP at Km
T3 construct: purchased Reaction Biology Corp
T3 sequence (Q13233 whole entry): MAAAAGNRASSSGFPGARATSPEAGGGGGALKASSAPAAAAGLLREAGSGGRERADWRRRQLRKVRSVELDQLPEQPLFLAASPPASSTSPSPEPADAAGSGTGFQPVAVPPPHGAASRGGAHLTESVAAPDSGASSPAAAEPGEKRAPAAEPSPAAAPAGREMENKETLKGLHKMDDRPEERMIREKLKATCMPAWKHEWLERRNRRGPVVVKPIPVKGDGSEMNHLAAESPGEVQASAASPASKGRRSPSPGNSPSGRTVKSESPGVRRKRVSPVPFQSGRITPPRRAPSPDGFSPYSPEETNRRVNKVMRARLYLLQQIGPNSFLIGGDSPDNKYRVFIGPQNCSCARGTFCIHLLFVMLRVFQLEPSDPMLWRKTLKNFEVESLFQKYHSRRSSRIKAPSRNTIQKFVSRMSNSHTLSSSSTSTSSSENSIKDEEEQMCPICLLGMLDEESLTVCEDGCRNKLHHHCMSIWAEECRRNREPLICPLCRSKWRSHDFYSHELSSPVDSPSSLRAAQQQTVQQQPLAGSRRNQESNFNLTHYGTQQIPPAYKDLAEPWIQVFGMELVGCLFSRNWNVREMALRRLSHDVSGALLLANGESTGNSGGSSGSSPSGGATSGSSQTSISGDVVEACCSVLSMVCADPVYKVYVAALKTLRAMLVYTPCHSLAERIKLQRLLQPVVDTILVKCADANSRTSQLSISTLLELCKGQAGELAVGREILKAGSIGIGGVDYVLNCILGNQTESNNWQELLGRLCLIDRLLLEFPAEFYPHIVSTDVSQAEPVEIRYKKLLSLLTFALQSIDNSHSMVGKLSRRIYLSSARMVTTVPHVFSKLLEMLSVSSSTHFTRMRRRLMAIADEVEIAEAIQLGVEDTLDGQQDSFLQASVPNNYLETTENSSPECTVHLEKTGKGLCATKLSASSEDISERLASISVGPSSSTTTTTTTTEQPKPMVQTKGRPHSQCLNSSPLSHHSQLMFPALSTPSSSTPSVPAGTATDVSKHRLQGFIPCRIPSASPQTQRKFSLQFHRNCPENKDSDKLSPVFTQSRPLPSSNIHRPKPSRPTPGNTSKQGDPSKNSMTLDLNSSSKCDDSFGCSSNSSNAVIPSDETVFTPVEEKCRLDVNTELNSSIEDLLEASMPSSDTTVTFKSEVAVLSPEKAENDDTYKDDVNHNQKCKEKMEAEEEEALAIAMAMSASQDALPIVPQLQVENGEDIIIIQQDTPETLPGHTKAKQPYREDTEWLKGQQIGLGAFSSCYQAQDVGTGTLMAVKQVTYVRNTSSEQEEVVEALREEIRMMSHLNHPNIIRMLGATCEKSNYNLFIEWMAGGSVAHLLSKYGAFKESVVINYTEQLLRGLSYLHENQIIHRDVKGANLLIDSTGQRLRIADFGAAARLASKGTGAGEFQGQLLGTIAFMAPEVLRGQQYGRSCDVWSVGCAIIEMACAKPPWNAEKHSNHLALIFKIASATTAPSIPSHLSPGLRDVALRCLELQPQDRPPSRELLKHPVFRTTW
Description: as §1

MEKK6 = target: T4, MEKK6 (Homo sapiens, UniProt O95382); test: Kinase HotSpot profiling (Reaction Biology Corp.); assay type: biochemical; details: ATP at Km
T4 construct: purchased Reaction Biology Corp
T4 sequence (O95382 1-1288): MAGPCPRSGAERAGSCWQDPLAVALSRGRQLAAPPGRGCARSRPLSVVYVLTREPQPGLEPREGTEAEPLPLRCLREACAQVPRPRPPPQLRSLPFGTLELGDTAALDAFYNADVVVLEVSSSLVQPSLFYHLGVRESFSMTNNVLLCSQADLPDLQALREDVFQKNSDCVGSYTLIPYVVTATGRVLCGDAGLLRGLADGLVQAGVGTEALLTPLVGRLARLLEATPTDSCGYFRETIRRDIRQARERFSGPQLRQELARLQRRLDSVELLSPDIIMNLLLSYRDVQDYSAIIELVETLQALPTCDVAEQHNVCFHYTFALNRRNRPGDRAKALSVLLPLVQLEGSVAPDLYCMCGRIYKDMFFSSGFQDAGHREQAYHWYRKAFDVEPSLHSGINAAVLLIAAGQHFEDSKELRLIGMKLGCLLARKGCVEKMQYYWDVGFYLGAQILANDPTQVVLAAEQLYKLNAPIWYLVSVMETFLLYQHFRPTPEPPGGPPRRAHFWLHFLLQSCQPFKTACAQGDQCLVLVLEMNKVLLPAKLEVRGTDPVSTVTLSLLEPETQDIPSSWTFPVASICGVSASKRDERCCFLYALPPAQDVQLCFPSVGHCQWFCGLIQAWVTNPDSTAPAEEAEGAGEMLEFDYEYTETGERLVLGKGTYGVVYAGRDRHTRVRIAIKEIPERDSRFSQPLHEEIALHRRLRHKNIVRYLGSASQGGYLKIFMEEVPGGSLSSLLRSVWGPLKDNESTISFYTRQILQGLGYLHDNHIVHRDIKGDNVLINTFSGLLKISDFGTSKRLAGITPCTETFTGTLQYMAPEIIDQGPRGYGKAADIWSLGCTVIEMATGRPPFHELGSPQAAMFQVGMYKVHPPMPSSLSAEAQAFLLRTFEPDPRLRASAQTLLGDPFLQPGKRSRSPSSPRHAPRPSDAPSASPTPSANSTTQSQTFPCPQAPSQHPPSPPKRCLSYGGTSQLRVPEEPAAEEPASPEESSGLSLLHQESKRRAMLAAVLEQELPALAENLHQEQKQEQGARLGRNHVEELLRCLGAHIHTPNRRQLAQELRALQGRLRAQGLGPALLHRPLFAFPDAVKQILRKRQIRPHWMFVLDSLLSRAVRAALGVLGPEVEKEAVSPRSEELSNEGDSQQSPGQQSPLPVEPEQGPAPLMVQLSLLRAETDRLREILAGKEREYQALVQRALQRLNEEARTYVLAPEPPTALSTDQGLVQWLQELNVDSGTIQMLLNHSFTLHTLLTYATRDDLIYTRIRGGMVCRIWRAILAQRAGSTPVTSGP
Description: as §1

MINK1/MAP4K6 = target: T5, MINK1/MAP4K6 (Homo sapiens, UniProt Q8N4C8); test: Kinase HotSpot profiling (Reaction Biology Corp.); assay type: biochemical; details: ATP at Km
T5 construct: purchased Reaction Biology Corp
T5 sequence (Q8N4C8 whole entry): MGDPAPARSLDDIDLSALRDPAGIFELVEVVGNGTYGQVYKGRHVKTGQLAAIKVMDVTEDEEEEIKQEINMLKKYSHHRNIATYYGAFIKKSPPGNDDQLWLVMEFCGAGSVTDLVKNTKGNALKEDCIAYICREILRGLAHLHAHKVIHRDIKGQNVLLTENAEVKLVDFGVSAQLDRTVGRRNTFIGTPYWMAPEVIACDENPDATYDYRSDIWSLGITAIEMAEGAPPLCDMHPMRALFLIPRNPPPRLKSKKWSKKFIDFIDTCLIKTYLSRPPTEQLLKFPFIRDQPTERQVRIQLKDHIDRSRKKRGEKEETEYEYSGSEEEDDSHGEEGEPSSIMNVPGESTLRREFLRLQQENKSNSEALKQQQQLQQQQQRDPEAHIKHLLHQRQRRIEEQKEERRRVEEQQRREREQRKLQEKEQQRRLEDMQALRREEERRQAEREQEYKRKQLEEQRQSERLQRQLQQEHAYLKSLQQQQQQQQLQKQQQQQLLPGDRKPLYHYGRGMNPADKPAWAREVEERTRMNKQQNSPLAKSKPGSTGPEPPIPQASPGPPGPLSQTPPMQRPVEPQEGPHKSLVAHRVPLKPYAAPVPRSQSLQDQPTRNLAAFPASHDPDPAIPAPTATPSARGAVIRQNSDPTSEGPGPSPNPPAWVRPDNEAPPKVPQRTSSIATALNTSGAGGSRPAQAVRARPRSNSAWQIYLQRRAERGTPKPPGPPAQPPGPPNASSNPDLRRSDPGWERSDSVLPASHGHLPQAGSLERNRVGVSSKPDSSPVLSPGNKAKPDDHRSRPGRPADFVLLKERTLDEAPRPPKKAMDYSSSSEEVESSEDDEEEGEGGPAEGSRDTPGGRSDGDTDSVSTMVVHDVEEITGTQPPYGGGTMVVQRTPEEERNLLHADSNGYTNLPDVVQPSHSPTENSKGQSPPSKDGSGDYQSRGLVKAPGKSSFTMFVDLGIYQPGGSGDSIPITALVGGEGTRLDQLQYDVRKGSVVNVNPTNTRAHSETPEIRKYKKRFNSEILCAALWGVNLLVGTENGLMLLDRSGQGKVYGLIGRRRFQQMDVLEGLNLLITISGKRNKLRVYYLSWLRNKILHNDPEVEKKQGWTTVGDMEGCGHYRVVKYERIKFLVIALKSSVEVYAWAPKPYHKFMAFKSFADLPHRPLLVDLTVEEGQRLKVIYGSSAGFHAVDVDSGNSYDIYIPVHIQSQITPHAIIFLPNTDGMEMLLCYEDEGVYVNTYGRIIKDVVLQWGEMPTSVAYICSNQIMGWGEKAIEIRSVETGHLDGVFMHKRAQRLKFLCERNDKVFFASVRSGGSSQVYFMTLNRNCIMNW
Description: as §1

MLK2/MAP3K10 = target: T6, MLK2/MAP3K10 (Homo sapiens, UniProt Q02779); test: Kinase HotSpot profiling (Reaction Biology Corp.); assay type: biochemical; details: ATP at Km
T6 construct: purchased Reaction Biology Corp
T6 sequence (Q02779 whole entry): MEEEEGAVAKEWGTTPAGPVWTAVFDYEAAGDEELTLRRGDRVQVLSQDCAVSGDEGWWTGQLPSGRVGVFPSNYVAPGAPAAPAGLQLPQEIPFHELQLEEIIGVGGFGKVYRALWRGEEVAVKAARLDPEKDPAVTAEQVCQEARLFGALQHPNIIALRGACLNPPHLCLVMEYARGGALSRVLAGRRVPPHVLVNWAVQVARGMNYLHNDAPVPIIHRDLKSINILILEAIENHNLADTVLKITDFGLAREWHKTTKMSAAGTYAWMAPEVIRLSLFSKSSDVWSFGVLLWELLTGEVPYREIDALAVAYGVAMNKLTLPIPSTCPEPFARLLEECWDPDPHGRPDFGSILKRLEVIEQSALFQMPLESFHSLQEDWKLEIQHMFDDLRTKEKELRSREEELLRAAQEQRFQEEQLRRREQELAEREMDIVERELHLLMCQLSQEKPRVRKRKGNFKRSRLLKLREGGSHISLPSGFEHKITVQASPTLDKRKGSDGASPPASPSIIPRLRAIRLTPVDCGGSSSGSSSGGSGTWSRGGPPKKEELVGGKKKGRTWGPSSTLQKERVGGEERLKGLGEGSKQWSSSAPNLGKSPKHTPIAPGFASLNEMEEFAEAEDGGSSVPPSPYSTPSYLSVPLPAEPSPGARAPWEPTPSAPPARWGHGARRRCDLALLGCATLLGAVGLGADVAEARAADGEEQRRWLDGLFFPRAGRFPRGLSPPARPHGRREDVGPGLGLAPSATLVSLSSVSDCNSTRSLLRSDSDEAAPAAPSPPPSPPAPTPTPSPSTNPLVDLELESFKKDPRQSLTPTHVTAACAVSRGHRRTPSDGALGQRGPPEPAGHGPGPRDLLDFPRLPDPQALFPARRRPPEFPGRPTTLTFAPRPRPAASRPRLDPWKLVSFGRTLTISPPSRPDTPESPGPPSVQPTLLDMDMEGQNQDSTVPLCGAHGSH
Description: as §1

ZAK/MLTK = target: T7, ZAK/MLTK (Homo sapiens, UniProt Q9NYL2); test: Kinase HotSpot profiling (Reaction Biology Corp.); assay type: biochemical; details: ATP at Km
T7 construct: purchased Reaction Biology Corp
T7 sequence (Q9NYL2 whole entry): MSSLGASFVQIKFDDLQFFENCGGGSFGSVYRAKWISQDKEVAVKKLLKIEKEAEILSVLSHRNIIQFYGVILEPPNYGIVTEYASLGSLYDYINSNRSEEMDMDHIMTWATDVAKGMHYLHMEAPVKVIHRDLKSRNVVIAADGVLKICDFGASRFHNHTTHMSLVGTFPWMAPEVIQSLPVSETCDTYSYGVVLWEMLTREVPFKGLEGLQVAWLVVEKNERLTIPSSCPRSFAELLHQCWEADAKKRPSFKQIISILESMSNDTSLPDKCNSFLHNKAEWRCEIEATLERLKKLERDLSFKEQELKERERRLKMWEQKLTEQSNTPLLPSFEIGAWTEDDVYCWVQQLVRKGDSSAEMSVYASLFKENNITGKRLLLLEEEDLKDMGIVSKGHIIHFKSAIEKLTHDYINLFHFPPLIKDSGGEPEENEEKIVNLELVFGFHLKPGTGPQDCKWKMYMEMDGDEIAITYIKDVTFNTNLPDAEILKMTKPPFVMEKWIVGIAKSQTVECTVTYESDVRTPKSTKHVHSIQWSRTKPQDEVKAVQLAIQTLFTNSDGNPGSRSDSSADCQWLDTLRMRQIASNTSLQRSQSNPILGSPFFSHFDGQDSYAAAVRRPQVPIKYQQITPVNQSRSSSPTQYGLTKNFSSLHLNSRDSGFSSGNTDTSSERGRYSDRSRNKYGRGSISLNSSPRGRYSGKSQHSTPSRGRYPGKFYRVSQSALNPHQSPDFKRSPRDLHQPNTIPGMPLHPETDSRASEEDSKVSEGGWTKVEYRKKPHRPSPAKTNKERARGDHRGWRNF
Description: as §1

MDA-MB-231 cells = test: Caspase-3/7 assay (Apo-ONE); assay type: cell-based; details: 0.5 µM, presence of TNFα (10 ng/ml), 24 h, MDA-MB-231
Description: MDA-MB-231 cells were obtained from the Korean Cell Line Bank. Cells were cultured in Roswell Park Memorial Institute (RPMI) 1640 medium containing 10% foetal bovine serum and 1% penicillin/streptomycin at 37 °C with 5% CO2 under humidified atmosphere.
The assay was performed using Apo-ONE® Homogeneous Caspase-3/7 Assay kits (Catalogue No. G7790, Promega, Madison, WI). MDA-MB-231 cells in a concentration of 5000 cells/100 µl were seeded in each well of a black 96-well plate and starved after adhering to the plate. The cells were incubated for 24 h, and the serum-starved cells were treated with either Takinib or 13h in the presence or absence of TNFα (10 ng/ml). All samples and the control contained DMSO in a final concentration of 0.5%. After another 24 h of incubation, 100 µL of Apo-ONE® caspase-3/7 reagent was added to each well, and the cells were incubated at room temperature in darkness for 2 h. Fluorescence was then measured at 530 nm with excitation at 485 nm using a FlexStation 3 Multi-Mode microplate reader (Molecular Devices). Statistical analyses of the data included a one-way ANOVA, followed by Tukey’s multiple comparison test.

IC50 (TAK1; read-out: IC50 against TAK1): 27 nM | inhibition at 1 µM (MEK1/MAP2K1): 10 ± 0.7% | inhibition at 1 µM (MEKK1): 12 ± 0.7% | inhibition at 1 µM (MEKK6): 0% | inhibition at 1 µM (MINK1/MAP4K6): 15 ± 2.4% | inhibition at 1 µM (MLK2/MAP3K10): 30 ± 2% | inhibition at 1 µM (ZAK/MLTK): 29 ± 1.4%
Structure (SMILES): Cc1cccc(/C=C(\C#N)C(=O)N[C@@H]2CCN(c3c(Cl)cnc4[nH]c(-c5ccc(N6CCN(C)CC6)cc5)nc34)C2)n1 [Compound 13h, (R,E)-N-(1–(6-chloro-2–(4-(4-methylpiperazin-1-yl)phenyl)-3H-imidazo[4,5-b]pyridin-7-yl)pyrrolidin-3-yl)-2-cyano-3-(6-methylpyridin-2-yl)acrylamide]
TAK1 potency, SAR result in words (TAK1; Table 1 SAR discussion): maintained or improved potency; also recorded: excellent | caspase-3/7 activity (MDA-MB-231 cells): induced significant caspase activation

From article PMC7594721, “Synthesis and biological activity of 2-cyanoacrylamide derivatives tethered to imidazopyridine as TAK1 inhibitors” (Journal of Enzyme Inhibition and Medicinal Chemistry, 2020)
